Assay results published in patent US20220323594A1, “LIPIDATED CATIONIC PEPTIDE-PEG COMPOSITIONS FOR NUCLEIC ACID DELIVERY” (NUTCRACKER THERAPEUTICS, INC., priority 2019, published 2022).
Where two headings read alike, the source gives them in different places.

What was measured:
[1] = MTT viability assay after treatment with Fluc mRNA/amino lipidated peptoid formulations; type: cell-based; details: human, HeLa cells
Method: Cellular viability was measured following treatment with Fluc mRNA/amino lipidated peptoid formulations by a traditional MTT viability assay. […] In this assay, cells were first treated with peptoid formulations at a final mRNA concentration of 100 ng/well for 8 hours. Cells were then left to grow for 48 hours, after which time they were exposed to 1.5 mg/mL 3-(4,5-dimethylthiazol-2-yl)-2,5-diphenyltetrazolium bromide (MTT) for 2 hours, then lysed using a solubilizing solution of 10% Triton-X 100 in acidic isopropanol (0.1N HCl). The signal corresponding to reduced formazan was normalized to untreated cells to provide a relative viability of each treated condition. […] In general, nearly all conditions maintained at least 80% viability with the only exceptions being formulations of compound 5, 34, and 35.

[2] = Dynamic light scattering (DLS) of mRNA/peptoid formulations: particle size and polydispersity; type: physicochemical; details: Fluc mRNA/peptoid formulation; for Size PDI: size polydispersity index by DLS, 5:1 mass ratio; for Size (nm): volume average particle size/diameter by DLS, 5:1 mass ratio peptoid:cargo
Method: (§1) To prepare nanoparticle formulations, the amino lipidated peptoid is mixed by pipetting with nucleic acid at a mass ratio between approximately 1:1 (peptoid:cargo) and 20:1. Prior to formulation, amino lipidated peptoid and nucleic acid cargo were diluted in ethanol and acidic buffer (PBS adjusted to pH 5.5 with 0.1 M HCl) respectively to a volume ratio of 1:3 and to target a final cargo concentration of approximately 0.05 mg/mL to 0.2 mg/mL. The exemplary amino lipidated cationic peptoids described in Example 2 were combined with firefly luciferase (Fluc) mRNA to form nanoparticle compositions to be evaluated for therapeutic and/or prophylactic purposes in vitro or in vivo. The formulations were prepared according to the protocol of Example 3 and mixed by simple pipetting. The mRNA/peptoid formulation at a 5:1 mass ratio of peptoid:cargo were evaluated by dynamic light scattering (DLS) in order to determine the volume average particle size/diameter (nm) of the mRNA/peptoid complex and the size polydispersity index (PDI) within the formulation. The percentage of mRNA encapsulation for each formulation of the exemplary compounds were determined by fluorescence of the Qubit RNA HS (Invitrogen) dye before and after lysis of particles by Triton X-100.

HeLa cells [3] = assay: In vitro expression of firefly luciferase (Fluc) after treatment with Fluc mRNA/amino lipidated peptoid formulations, no PEG or 2% DMG-PEG2000; type: cell-based
Method: The efficacy of mRNA/amino lipidated peptoid formulations was evaluated in vitro based on their ability to deliver the firefly luciferase (Fluc) reporter gene to cultured cells. Amino lipidated peptoids were combined with Fluc mRNA at a 5:1 w/w ratio, and the resulting particles were added to cultured HeLa cells at a dose of 100 ng/well (in 100 μL total volume). The resulting luciferase expression (RLU) was measured by a luminescence plate reader after 6 hours and 24 hours of treatment. […] In addition to evaluating nanoparticle complexes formed between mRNA cargos and amino lipidated peptoids alone, multicomponent formulations containing a small amount of PEG-lipid DMG-PEG2000 were also tested for in vitro Fluc mRNA delivery. In these formulations, DMG-PEG2000 was pre-mixed with candidate peptoid at an overall 2% incorporation (w/w), while maintaining the same 5:1 mass ratio of peptoid:mRNA used previously.

HeLa cells [4] = assay: In vitro Fluc expression with variable peptoid:mRNA mass ratio, 2% DMG-PEG2000; type: cell-based; details: 24 h; for Observed Luciferase Expression (RLU) for Given Formulation Mass Ratio 2:1: 2% (w/w) DMG-PEG2000, peptoid:mRNA 2:1; for Observed Luciferase Expression (RLU) for Given Formulation Mass Ratio 3.5:1: 2% (w/w) DMG-PEG2000, peptoid:mRNA 3.5:1; for Observed Luciferase Expression (RLU) for Given Formulation Mass Ratio 5:1: 2% (w/w) DMG-PEG2000, peptoid:mRNA 5:1; for Observed Luciferase Expression (RLU) for Given Formulation Mass Ratio 7.5:1: 2% (w/w) DMG-PEG2000, peptoid:mRNA 7.5:1
Method: The charge ratio dependence of amino lipidated peptoid delivery vehicles was evaluated by formulating particles between Fluc mRNA and delivery vehicles at varying mass ratios. Formulations were varied between 2:1 and 7.5:1 peptoid:mRNA (w/w) ratios (2:1, 3.5:1, 5:1 and 7.5:1). In addition, the role of DMG-PEG2000 was also explored with the mass ratios, either by excluding DMG-PEG2000 or incorporating DMG-PEG2000 at 2% (w/w) relative to amino lipidated peptoid. Fluc expression from these formulations was measured in HeLa cells following treatment for 24 hours. […] FIGS. 6B and 6C show plots of the average bioluminescence (RLU) for HeLa cells treated with the formulations of exemplary amino lipidated cationic peptoid compounds 1-36, all formulated with 2% w/w DMG-PEG2000.

[5] = mRNA encapsulation by fluorescence of Qubit RNA HS dye before and after lysis with Triton X-100; type: physicochemical; details: percentage of mRNA encapsulation; Fluc mRNA/peptoid formulation, 5:1 mass ratio
Method: as §1, with “The” for “To prepare nanoparticle formulations, the amino lipidated peptoid is mixed by pipetting with nucleic acid at a mass ratio between approximately 1:1 (peptoid:cargo) and 20:1. Prior to formulation, amino lipidated peptoid and nucleic acid cargo were diluted in ethanol and acidic buffer (PBS adjusted to pH 5.5 with 0.1 M HCl) respectively to a volume ratio of 1:3 and to target a final cargo concentration of approximately 0.05 mg/mL to 0.2 mg/mL. The”

[6] = no PEG, peptoid:Fluc mRNA 5:1 w/w, 100 ng/well, 6 h of treatment
[7] = no PEG, peptoid:Fluc mRNA 5:1 w/w, 100 ng/well, 24 h of treatment
[8] = with 2% (w/w) DMG-PEG2000, peptoid:mRNA 5:1, 6 h after treatment
[9] = with 2% (w/w) DMG-PEG2000, peptoid:mRNA 5:1, 24 h after treatment
[10] = MTT, 2% (w/w) DMG-PEG2000, 5:1 mass ratio, 100 ng/well mRNA for 8 h then 48 h growth, normalized to untreated cells, read-out: Relative Viability (%) 2% PEG
[11] = MTT, formulation alone (no PEG), 5:1 mass ratio, 100 ng/well mRNA for 8 h then 48 h growth, normalized to untreated cells, read-out: Relative Viability (%) No PEG

| Compound | viability at 8 h, 500 ng/well ([1]; Relative Viability (%) 2% PEG) [%] | viability at 8 h, 500 ng/well ([1]; Relative Viability (%) No PEG) [%] | viability at 8 h, 500 ng/well ([1]; viability) [%] | Size PDI [2] | Size (nm) [2] [nm] | Luciferase Expression (RLU) 6 h (HeLa cells [3]; [6]) [RLU] | Luciferase Expression (RLU) 24 h (HeLa cells [3]; [7]) [RLU] | Luciferase Expression (RLU) 6 h (HeLa cells [3]; [8]) [RLU] | Luciferase Expression (RLU) 24 h (HeLa cells [3]; [9]) [RLU] | Observed Luciferase Expression (RLU) for Given Formulation Mass Ratio 2:1 (HeLa cells [4]) [RLU] | Observed Luciferase Expression (RLU) for Given Formulation Mass Ratio 3.5:1 (HeLa cells [4]) [RLU] | Observed Luciferase Expression (RLU) for Given Formulation Mass Ratio 5:1 (HeLa cells [4]) [RLU] | Observed Luciferase Expression (RLU) for Given Formulation Mass Ratio 7.5:1 (HeLa cells [4]) [RLU] | % Encapsulation [5] [%] | viability at 8 h, 500 ng/well [1, 10] [%] | viability at 8 h, 500 ng/well [1, 11] [%] |
| --- | --- | --- | --- | --- | --- | --- | --- | --- | --- | --- | --- | --- | --- | --- | --- | --- |
| CCCCCCCCCCCCCCCCCCN(CC(N)=O)C(=O)CN(CCCCCCCCCCCCCCCCCC)C(=O)CN(CCc1ccccc1)C(=O)CN(CCc1ccccc1)C(=O)CN(CCN)C(=O)CN(CCc1ccccc1)C(=O)CN(CCc1ccccc1)C(=O)CN(CCN)C(=O)CN(CCc1ccccc1)C(=O)CN(CCc1ccccc1)C(=O)CNCCN [Compound 5] | 91.2 | 56.8 | < 80 | 0.308 | 364.7 | 9.60E+01 | 5.36E+02 | 3.46E+02 | 1.22E+02 | 5.81E+02 | 1.15E+03 | 9.21E+02 | 1.14E+03 | 88.3 | – | – |
| CCCCCCCCCCN(CC(N)=O)C(=O)CN(CCc1ccccc1)C(=O)CN(CCc1ccccc1)C(=O)CN(CCN)C(=O)CN(CCc1ccccc1)C(=O)CN(CCc1ccccc1)C(=O)CN(CCN)C(=O)CN(CCc1ccccc1)C(=O)CN(CCc1ccccc1)C(=O)CNCCN [Compound 6] | – | – | – | 0.348 | 448.6 | 4.30E+01 | 3.60E+01 | 1.38E+02 | 2.13E+01 | 8.18E+01 | 8.18E+01 | 6.97E+01 | 4.56E+01 | 92.4 | 88.9 | 88 |
| CCCCCCCCCCN(CC(N)=O)C(=O)CN(CCCCCCCCCC)C(=O)CN(CCCCCCCCCC)C(=O)CN(CCc1ccccc1)C(=O)CN(CCc1ccccc1)C(=O)CN(CCN)C(=O)CN(CCc1ccccc1)C(=O)CN(CCc1ccccc1)C(=O)CN(CCN)C(=O)CN(CCc1ccccc1)C(=O)CN(CCc1ccccc1)C(=O)CNCCN [Compound 7] | – | – | – | 0.177 | 296.7 | 6.45E+03 | 9.71E+03 | 2.77E+03 | 1.81E+03 | 1.61E+04 | 1.43E+04 | 2.20E+04 | 5.92E+03 | 88.4 | 96 | 78 |
| CCCCCCCCCCN(CC(N)=O)C(=O)CN(CCCCCCCCCC)C(=O)CN(CCc1ccccc1)C(=O)CN(CCc1ccccc1)C(=O)CNCCN [Compound 9] | 107 | 99.3 | – | 0.122 | 367.9 | 1.52E+02 | 8.57E+01 | 1.38E+02 | 3.33E+01 | 2.28E+02 | 3.67E+02 | 9.91E+02 | 1.82E+02 | 73.9 | – | – |
| CCCCCCCCCCN(CC(N)=O)C(=O)CN(CCCCCCCCCC)C(=O)CN(CCc1ccccc1)C(=O)CN(CCc1ccccc1)C(=O)CN(CCN)C(=O)CN(CCc1ccccc1)C(=O)CN(CCc1ccccc1)C(=O)CN(CCN)C(=O)CN(CCc1ccccc1)C(=O)CN(CCc1ccccc1)C(=O)CN(CCN)C(=O)CN(CCc1ccccc1)C(=O)CN(CCc1ccccc1)C(=O)CNCCN [Compound 11] | 104 | 104 | – | 0.038 | 354.9 | 1.15E+03 | 1.22E+03 | 3.90E+02 | 5.23E+02 | 2.79E+04 | 3.14E+04 | 4.48E+04 | 4.36E+03 | 87.8 | – | – |
